Results taken from patent US8168628B2, “Conjugated psychotropic drugs and uses thereof” (Ramot at Tel-Aviv University Ltd., priority 2001, dated 2012).
Where a name gives a salt, the structure may show the parent alone. Read-outs that look alike come from different tables or passages of the source.

Legend:
mice = assay: Catalepsy in mice (bar between two cages); type: in vivo, mouse
Procedure: Young adult male and female mice were purchased from Harlan, Israel. The animals were housed for 4-7 days under controlled conditions prior to experimentation. Experiments were conducted in a double blind procedure. In each experiment various treatment groups (about 10 animals each) were tested.
Catalepsy in mice: The appearance of stereotypic cataleptic behavior in mice following the neuroleptic treatment was measured in two different sets of experiments.
The catalepsy was determined using a system of two cages and a bar therebetween. The mouse was hung in the middle of the bar, and the percentage of animals reaching the target within 2 minutes was monitored 1 hour, 2 hours and 3 hours following the treatment.
The catalepsy was determined using the system described hereinabove. The mouse was hung in the middle of the bar, and the time it took the animal to reach the target was measured.

U-937 = assay: Proliferation test, U-937 cells; type: cell-based; settings: Homo sapiens, linear regression of survival percentage
Procedure: (§1) Cell lines: Human prostate carcinoma (PC-3), human colon carcinoma (HT-29), murine melanoma (B-16) and its drug resistant subclone (B-16 MDR), mouse fibroblasts (3T3), myeloid leukemia (HL 60) and its drug resistant subclone (HL 60 MX2), endometrium cell line (MES SA) and its drug resistant subclone (MES DX5), jurkat T lymphoma and monocyte leukemia (U-937), were used in this study.
(§2) Proliferation of cancer and normal cells: Proliferation was measured by neutral red assay or by a fluorometric assay quantitating DNA content. In the neutral red assay, the neutral red is absorbed by lysosomes, thus causing coloring of living cells. Quantitative analysis is performed by colorimetric assay (ELISA reader at 550 nm). In the fluorometric assay, alamar blue is used as a redox indicator. Alamar blue fluorescence was measured at an excitation wavelength of 544 nm and an emission wavelength of […] (FLUOstar BMG Lab Technologies, Offenburg, Germany).
(§3) The cells were sub-cultured and the tested compounds were added thereto in increasing concentrations. The IC50 values were determined by linear regression of the survival percentage of the cells.

B16 = assay: Proliferation test, B16 melanoma cells; type: cell-based, murine
Procedure: as §1, §2, §3

HL 60 MX2 (MDR) = assay: Proliferation test, HL 60 MX2 (MDR) cells; type: cell-based; settings: Homo sapiens, HL60/MX2; linear regression of survival percentage
Procedure: as §1, §2, §3

3T3 = assay: Proliferation test, 3T3 fibroblasts; type: cell-based; settings: Mus musculus, NIH3T3; linear regression of survival percentage
Procedure: as §1, §2, §3

rats [1] = assay: Behavioral criteria: sedation and mobility score in rats; settings: score 0-3; for Sedation score: oral, 4-6 hours after treatment
Procedure: The effect of the administration of the tested compound on animals behavior was measured by evaluating the degree of animal sedation and mobility following the treatment described hereinabove, using a score of from 0 to 3. A score of 0 represents active and mobile animals, 1 represents calm and mobile animals, 2 represents calm and immobile animals and 3 represents completely ataxic and non-alert animals.

C6 rat glioma cells = assay: Chemosensitization in C6 rat glioma cells; type: cell-based
Procedure: Chemosensitization: The chemosensitizing effect of perphenazine and its chemical conjugate AN 168 was measured in vitro. Various concentrations of perphenazine or AN 168 were co-administered together with a chemotherapeutic agent to either C6 rat glioma cells or to Jurkat T lymphoma cells. Cells viability and/or DNA fragmentation following treatment with either the chemotherapeutic agent, perphenazine, AN 168, a combination of the chemotherapeutic agent and perphenazine or a combination of a chemotherapeutic agent with AN 168 were measured as described hereinabove.

HL 60 = assay: Proliferation test, HL 60 cells; type: cell-based; settings: Homo sapiens, linear regression of survival percentage
Procedure: as §1, §2, §3

HT-29 = assay: Proliferation test, HT-29 cells; type: cell-based; settings: Homo sapiens, linear regression of survival percentage
Procedure: as §1, §2, §3

Normal rat fibroblasts = assay: Proliferation test, normal rat fibroblasts; type: cell-based; settings: Fibroblast, linear regression of survival percentage
Procedure: The primary cultures of rat fibroblasts were obtained from neonatal rats using known procedures.
as §2, §3

rats [2] = settings: rat, in vivo
Procedure: Animals: Young adult male rats (150-230 grams) were purchased from Harlan (Israel). Animals were divided 2-5/cage and housed in controlled conditions in the animal room for a week prior to the experiments. The experiments were conducted with naive animals, in a double blind procedure. In each experiment various treatment groups (about 5-10 animals each) were tested.
Catalepsy in rats: The manifestation of the extrapyramidal adverse effects induced by typical neuroleptics was evaluated by the appearance of stereotypic cataleptic behavior in rats following the neuroleptic treatment. Catalepsy was determined by two methods: (i) by measuring the time it took an animal hanging on a cage wall to move its hind legs and reach a flat surface (the “wall” test); and (ii) rats were placed on a flat surface with their anterior limbs leaning on a flat bar (5.5 cm height) resembling a piano playing position. Catalepsy was determined by the time it took an animal to descend and reach the flat surface (the “piano” test). The maximum time of follow up was 2 minutes and these measurements were performed hourly and individually for each animal. These tests provide an assessment of central dopamine (DA) blocking activity and are acceptable criteria for extrapyramidal symptoms induced by anti-psychotic drugs [10].
A control animals group was treated with the vehicle (lactic acid) only.

rat myocytes = system: rat myocytes
Procedure: Toxicity: In vitro toxicity was determined by measuring the effect of the tested compounds (either known neuroleptics or the chemical conjugates of the invention) on primary cultures of neurons and whole brain neuron and glia cells obtained from the brains of neonatal mice. In vitro toxicity of perphenazine and its chemical conjugate AN 168 was also determined with rat myocytes. Acute toxicity in vivo as determined by the LD50 was evaluated on 2 months old ICR mice following the administration of a single intraperitoneal bolus-dose of drug.

Jurkat T lymphoma cells = assay: Proliferation / viability test, Jurkat T lymphoma cells; type: cell-based; settings: Homo sapiens
Procedure: as §1, §2, §3

rats [3] = assay: Catalepsy in rats, “piano” test, oral administration; type: in vivo, rat
Procedure: To this end, the induced catalepsy, the prolactin blood levels and the animal behavior were measured as described hereinabove, following oral administration of either AN 168 or perphenazine alone to rats. Animals, divided 5 per cage, were treated by oral administration of perphenazine or AN-168 dissolved in 1% lactic acid. Control animals received vehicle (lactic acid) only.
The catalepsy induced by oral administration of various concentrations of AN 168 and perphenazine was measured by the “wall” test and the “piano” test described hereinabove. The time course of catalepsy was measured 4-24 hours following oral administration of 2.5, 5, 10 and 20 mg/kg perphenazine and respective equimolar doses of 3.5, 7, 14 and 28 mg/kg AN-168. The total catalepsy represents the sum of average catalepsy per treated group during the 4-24 hours of follow-up.

PC-3 = assay: Proliferation test, PC-3 cells; type: cell-based; settings: Homo sapiens, linear regression of survival percentage
Procedure: as §1, §2, §3

B16 MDR = assay: Proliferation test, B16 MDR cells; type: cell-based, murine; settings: Mus musculus; linear regression of survival percentage
Procedure: as §1, §2, §3

MES SA DX5 (MDR) = assay: Proliferation test, MES SA DX5 (MDR) cells; type: cell-based; settings: Homo sapiens, linear regression of survival percentage
Procedure: as §1, §2, §3

NCCCC(=O)OCCN1CCN(CCCN2c3ccccc3Sc3ccc(Cl)cc32)CC1 [AN-168, Perphenazine 4-aminobutyrate Trihydrochloride]
catalepsy: percentage of animals reaching the target within 2 minutes (mice; adult male mice, 1.5 mg/kg perphenazine or equimolar dose (FIG. 7a)): substantially lower disability
catalepsy: time it took the animals to reach the target (mice; young female mice, 2.5 mg/kg perphenazine or equimolar dose, 2 and 3 hours after treatment (FIG. 7b)): much faster than the animals treated with perphenazine alone
IC50 (U-937): 14.2 µM
IC50 (B16; Mus musculus, B16, linear regression of survival percentage): 26.8 ± 1.8 µM
effect on the proliferation of B16 murine melanoma cells (B16; representative experiment (FIG. 13)): relatively active as anti-proliferative drugs
IC50 (HL 60 MX2 (MDR)): 18.4 µM
IC50 (3T3): 25 µM
sedation and mobility score, 30 min (rats [1]; i.p., 5 mg/kg perphenazine, 7.5 mg/kg fluphenazine or equimolar conjugate, 30 min): 0
sedation and mobility score, 60 min (rats [1]; i.p., 5 mg/kg perphenazine, 7.5 mg/kg fluphenazine or equimolar conjugate, 60 min): 0
sedation and mobility score, 90 min (rats [1]; i.p., 5 mg/kg perphenazine, 7.5 mg/kg fluphenazine or equimolar conjugate, 90 min): 1
sedation and mobility score, 120 min (rats [1]; i.p., 5 mg/kg perphenazine, 7.5 mg/kg fluphenazine or equimolar conjugate, 120 min): 1
sedation and mobility score, 180 min (rats [1]; i.p., 5 mg/kg perphenazine, 7.5 mg/kg fluphenazine or equimolar conjugate, 180 min): 1
sedation and mobility score, 240 min (rats [1]; i.p., 5 mg/kg perphenazine, 7.5 mg/kg fluphenazine or equimolar conjugate, 240 min): 1
Sedation score (rats [1]; 3.5 mg/kg): 0
Sedation score (rats [1]; 7 mg/kg): 0
Sedation score (rats [1]; 14 mg/kg): 1
Sedation score (rats [1]; 28 mg/kg): 2
chemosensitizing effect, co-administration with Vincistine (C6 rat glioma cells; 24 hours, Vincistine 30 μM, conjugate even at 5 μM (FIG. 16)): substantially enhance the cytotoxic effect thereof
cells viability, combined treatment of Cisplatin and AN 168 (C6 rat glioma cells; Cisplatin 5-50 μM plus 10 and 15 μM AN 168, neutral red (FIG. 17)): rendered the cells susceptible to the chemotherapeutic drug
IC50 (HL 60): 15.1 µM
IC50 (HT-29): 23.1 ± 9 µM
IC50 (Normal rat fibroblasts): 45.8 µM
time course of catalepsy (rats [2]; male, ip): no catalepsy through the entire 7 hours period
time course of catalepsy, conjugate versus mixture (rats [2]; male, ip, 120 min): abolished after 120 minutes
average of total catalepsy as percentage of the perphenazine-induced catalepsy (rats [2]): reduced the induced catalepsy to almost a zero value
total catalepsy, conjugate versus mixture (rats [2]; ip): very low catalepsy
induced catalepsy, SAR studies (rats [2]; ip, 5 mg/kg): almost maximal reduction of induced catalepsy
total catalepsy (rats [2]; ip, 5 mg/kg): did not induce catalepsy at all
total catalepsy (rats [2]; po): cataleptic symptoms were almost abolished
decrease in cells viability (rat myocytes): did not cause any decrease in cells viability at all concentrations
IC50 (Jurkat T lymphoma cells; alamar blue method (FIG. 15), read-out: IC50, Jurkat T lymphoma cells viability): 19 µM
IC50 (Jurkat T lymphoma cells; linear regression of survival percentage, read-out: IC50, JURKAT): 11.3 µM
time course of catalepsy (rats [3]; oral, 3.5-28 mg/kg AN 168 vs equimolar perphenazine, 4-6 hours (FIG. 8a)): consistent reduction in the cataleptic behavior at all concentrations
total catalepsy (rats [3]; oral, 5, 10, 20 mg/kg perphenazine, 7, 14, 28 mg/kg AN-168, 4-6 hours (FIGS. 9a, 9b)): consistently lower than that induced by perphenazine
time course of catalepsy, experiments conducted 3 months later (rats [3]; oral, 14 and 28 mg/kg AN 168, 4-6 hours (FIG. 8b)): higher catalepsy was induces as compared with the proceeding experiments
IC50 (PC-3): 45.5 µM
IC50 (B16 MDR): 23 ± 16 µM
IC50 (MES SA DX5 (MDR)): 17.2 µM
